For orientation: IC50 means the concentration that inhibits the measured activity by half. A low value points to higher potency.

The results in this text go back to publication PMC8773338, “Discovery Potent of Thiazolidinedione Derivatives as Antioxidant, α-Amylase Inhibitor, and Antidiabetic Agent” (Biomedicines, 2021).

One data set has as its target T1, α-amylase (Homo sapiens, UniProt P04746).
T1 sequence (P04746 16-511): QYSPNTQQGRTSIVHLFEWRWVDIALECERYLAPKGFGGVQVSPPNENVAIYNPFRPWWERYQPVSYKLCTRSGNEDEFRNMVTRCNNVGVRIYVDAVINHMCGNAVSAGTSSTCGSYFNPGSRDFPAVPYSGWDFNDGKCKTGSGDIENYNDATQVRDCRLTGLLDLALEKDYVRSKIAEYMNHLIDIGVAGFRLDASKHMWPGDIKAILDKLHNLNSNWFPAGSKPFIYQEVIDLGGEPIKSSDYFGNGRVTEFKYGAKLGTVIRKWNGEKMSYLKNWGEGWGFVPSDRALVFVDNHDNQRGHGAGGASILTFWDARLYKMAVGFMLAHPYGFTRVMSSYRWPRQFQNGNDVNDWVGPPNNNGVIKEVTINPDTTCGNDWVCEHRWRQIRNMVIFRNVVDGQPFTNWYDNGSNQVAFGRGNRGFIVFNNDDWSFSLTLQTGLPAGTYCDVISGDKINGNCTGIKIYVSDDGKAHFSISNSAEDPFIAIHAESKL
Nature of the data set: in vitro inhibition of α-amylase assay. The settings on record: six concentrations 5-40 µg/mL, non-linear regression. It is filed as biochemical. An excerpt: The α-amylase activity of the probe compounds determined using a method.
This study examined the inhibitory potential for the (3–6, 9, and 11) compounds against α-amylase enzyme. We applied six different concentrations (5,10,15,20,30, and 40) µg/mL for this test. These concentrations were plotted via the inhibition percentage to determine the IC50 (the concentration required to inhibit 50% of the enzyme) using the non-linear regression method.
- inhibition in-vitro of α-Amylase assay:
The α-amylase activity of the compounds were determined using a method in which 250 μL of each compound, or Metformin .HCl, dissolved in ethanol to obtain different concentrations (5, 10, 15, 20,30 and 40 μg/mL ), was mixed with 500 μL of α-amylase (2 U/mL ) in phosphate buffer (100 mM, pH 6.8) and incubated at 37 °C for 10 min. Thereafter, 50 μL of 1% starch, dissolved in the same buffer, was added to the mixture and the samples were incubated again at 37 °C. After 30 min, dinitrosalicylic acid (DNS) colour reagent (1 mL) was added. The (DNS) was prepared by adding 437mg of 3,5- dinitro salicylic acid in 20 mL distilled water to12 g of sodium potassium tartrate in 8 mL of 2 M NaOH, then added distilled water until the solution reach to 40 mL ). the samples were boiled for 10 min in water bath. For non-enzymatic reactions, the assays were performed with a blank containing all of the components except the enzyme. Each concentration was analyzed in three independent experiments run in triplicate.
The percent of inhibition Absorbance was then measured at 540 nm. The percent of inhibition of α-amylase was calculated as following by the formula below:
%inhibition= ((absorbance of blank_absorbance of compound)/absorbance of blank) *100. […]

Data set [1] relates to alloxan-induced diabetic rat model. The settings on record: Wistar (albino), in vivo, 30 days. An excerpt:
This study used an alloxan-induced diabetic rat model to test the anti-hyperglycemic action of substances (3–6, 9, 11). […] The BGL was monitored for each tested compound at three different doses (50, 100, and 250 μ/Kg) and for five experimental period durations (0, 2, 4, 15, 30 days).
At 50 μ/Kg, we observed no mortality during any of the experiment periods for all tested compounds.
Data analyzed by one way ANOVA followed by LSD test and expressed as mean ± SEM from five observations. TEXT PRINTED IN THE PICTURE: 3: Mortilaty: 20% (250 (m/Kg)); Mortilaty: 10% (100 (m/Kg)); Mortilaty: 0% (50 (m/Kg)) | 4: Mortilaty: 20% (250 (m/Kg)); Mortilaty: 10% (100 (m/Kg)); Mortilaty: 0% (50 (m/Kg)) | 5: Mortilaty: 30% (250 (m/Kg)); Mortilaty: 20% (100 (m/Kg)); Mortilaty: 0% (50 (m/Kg)) | 6: Mortilaty: 20% (250 (m/Kg)); Mortilaty: 10% (100 (m/Kg)); Mortilaty: 0% (50 (m/Kg)) | 9: Mortilaty: 20% (250 (m/Kg)); Mortilaty: 10% (100 (m/Kg)); Mortilaty: 0% (50 (m/Kg)) | 11: Mortilaty: 20% (250 (m/Kg)); Mortilaty: 10% (100 (m/Kg)); Mortilaty: 0% (50 (m/Kg)) DOUBTS OF THE COPYIST ABOUT THIS PICTURE: The control groups NO. (labels 0%, 0%, 0%, overlapping) and DC (labels 50%, 50% and a third that reads 50% or 60%, partly hidden) are not compounds and were left out. / 3, 4, 5, 6, 9, 11, Mortilaty at 50 (m/Kg): the 0% labels are partly overlapped by neighbouring bars and labels; 0% is the best reading. / Which label belongs to which dose series was judged from its position over the bars; several labels overlap.

Data set [2] shares this test system. Nature of the data set: serum lipid profile in alloxan-induced diabetic rats. In kind it is in vivo. To be noted: for LDL value: versus normal value; for CH level: versus normal animals; for serum CH level decrease: compared to the diabetic control group. The procedure: The blood samples (0.5 mL) were withdrawn from the retro-orbital plexus of each rat and the other steps adapted for measuring the biochemical analysis are shown in (Supplementary Materials).
A serious side effect related to diabetes is Hyperlipidemia. Insulin deficiency promotes the adipocytes to generate a fatty acid, hepatic phospholipids and cholesterol. Thus, we measured the levels of (cholesterol “CH”, triglyceride “TG”, high, low and very-low- and high/low and very low density lipoproteins “HDL, LDL and VLDL”) in serum for alloxan-loaded diabetes. […] The serum CH. Level decreased by 40%, 32%, 40%, 48%, 52%, and 43% for 3–6, 9, and 11, respectively, compared to the diabetic control group (Figure 7).
Figure 7 The level of Ch (cholesterol), TG (triglyceride), HDL (high density lipoprotein), LDL (low density lipoprotein) and VLDL (very low density lipoprotein) in serum of hyperglycemic loaded rats. […] Data analyzed by one way ANOVA followed by LSD test and expressed as mean ± SEM from five observations.
2007) dissolved in normal saline (Bodade et al., 2013). The animals were allowed to drink 5% glucose solution overnight to overcome the drug induced hypoglycemia (Gandhi and Sasikumar, 2012; Pareek etal., 2009). Blood samples were taken 48 h after injection of alloxan to ensure that diabetes has been induced (Vijayan et al., 2013), and fasting plasma glucose level of rats was determined using glucose strips. Rats with plasma glucose concentration N 300 mg/dl (Gadadare et al., 2015) were considered diabetic and included in […]
The blood samples (0.5 ml) were withdrawn from the retro-orbital plexus of each rat under mild anesthesia using a glass capillary tube after fasting for 6 h. Blood samples were centrifuged at 3000 rpm for 15 min. The serum was kept at −80 °C until analyzed. Speciﬁc reagent kits were used to determine levels of serum triglyceride (TG), serum cholesterol (CH), serum low density lipoproteins (LDL), serum high density lipoproteins (HDL) for assessing the lipid proﬁle.
(§1) Data are expressed as mean ± S.E. Data analysis was done using one way analysis of variance (ANOVA) followed by least significant difference (LSD) test for multiple comparisons. Difference was considered significant when p is less than 0.05. SPSS (version 11) program was used to carry out these statistical tests.

Data set [3] has the same test system. As to the kind of experiment: blood glucose level in alloxan-induced diabetic rat model. In kind it is in vivo. The settings on record: for reduction percentage of blood glucose level: 30-day treatment protocol, compared with the normal control. The method, then: Healthy male albino Wistar rats (150 ± 20 g) have been obtained as mentioned in Supplementary Materials.
The animals were kept fasting overnight (12 h) before induction of diabetes, which was induced in rats as reported and mentioned in Supplementary Materials.
We obtained the blood samples from the tail vein of all rats, the blood-glucose-level “BGLs” were measured and monitored in all treatment groups at days 0 (basal), 2th, 4th, 15th, and 30th as reported.
This study used an alloxan-induced diabetic rat model to test the anti-hyperglycemic action of substances (3–6, 9, 11). […] The BGL was monitored for each tested compound at three different doses (50, 100, and 250 μ/Kg) and for five experimental period durations (0, 2, 4, 15, 30 days). […]
The animals were kept fasting overnight (12 h) before induction of diabetes. […]
as §1

Data set [4] can be described thus: DPPH radical scavenging activity. To be noted: concentrations 0.16-1000 µg/mL. The procedure: The assay of 2,2-Diphenyl-1-picrylhydrazyl radical (DPPH) was performed according to the method at.
We examined the antioxidant activity of the (3–6, 9, and 11) hybrids using the stable DPPH assay. The antioxidant result was represented as IC50 (the concentration is essential for 50% reduction in the power of H-donation or radical scavenging). […] The increasing scavenging activity may be due to the stabilization of the lone pair in the conjugated system through the presence of the terminal carbonyl and thiazolidinone groups.
Background: DPPH is a stable violet radical that fades when it is reduced.

[5] abbreviates: 100 μ/Kg, in comparison with DC, 4th and 15th time durations.
The mark [6] stands for this setting: 250 μ/Kg, 15th and 30th treatments.
Setting [7] is: 250 μ/Kg, 30th time duration of treatment.

Structures are written as SMILES. ≈ marks a conversion by molar mass, not a printed value.

At α-amylase, `O=C1NC(=O)/C(=C\c2ccc3c(c2)OCO3)S1` [Compound 3] showed an IC50 of 173 µM. This molecule also came in with a Mortilaty in data set [1] of 0%. The LDL value entry was “can regulate the LDL value to the normal value” in data set [2] (2nd and 15th days); “failed to do so” in data set [2] (30th day). Further, the VLDL result in data set [2] (2nd to 15th days) is listed as “failed to reach to control value for VLDL”. Also, the VLDL level result in data set [2] (30th day) was “almost reached to the normal VLDL level”. For the same molecule, in data set [2] (30th day, 50 μ/Kg), the CH level entry was “lower CH level than the normal animals”. For the same molecule, the “serum CH level decrease” value in data set [2] (50 μ/Kg) is given as 40%.
As to `O=C(CCl)N1C(=O)S/C(=C/c2ccc3c(c2)OCO3)C1=O` [Compound 4], the IC50 against α-amylase is 163 µM. Moreover, the BGL result in data set [3] (50 μ/Kg, 4th, 15th and 30th) was “moderate reduction in BGL”; in data set [3] (setting [5]), “moderate decreases in BGL”. In data set [1], this molecule came in with a Mortilaty of 0%. Moreover, the “VLDL level of serum” value in data set [2] (all experimental periods, compared to the normal rats) is “below the normal value”. Moreover, the “serum CH level decrease” value in data set [2] (50 μ/Kg) is reported as 32%.
As to `CC(=O)CN1C(=O)SC(=Cc2ccc3c(c2)OCO3)C1=O` [Compound 5, 5-(benzo[d][1,3]dioxol-5-ylmethylene)-3-(2-oxopropyl) thiazolidine-2,4-dione], the midpoint of inhibition against α-amylase, the IC50, lay at 59 µM. Further, in data set [3] (setting [6]), the BGL entry is given as “promising decreases in BGL”. Besides, the Mortilaty in data set [1] came out at 0%. Further, the VLDL level entry in data set [2] (4th, 15th and 30th days) is given as “regulated the VLDL level to the normal level”. Moreover, in data set [2] (30th day, 50 μ/Kg), the CH level result was “lower CH level than the normal animals”. For the same molecule, the “serum CH level decrease” value in data set [2] (50 μ/Kg) came to 40%.
Consider `O=C(O)CN1C(=O)SC(=Cc2ccc3c(c2)OCO3)C1=O` [Compound 6, 2-(5-(benzo[d][1,3]dioxol-5-ylmethylene)-2,4-dioxothiazolidin-3-yl)acetic acid], for which the midpoint of inhibition against α-amylase, the IC50, lay at 33.4 µM. In addition, the “IC50 DPPH radical scavenging” value in data set [4] was 10.78 µg/mL (≈ 35.1 µM). Further, the “reduction percentage of blood glucose level” value in data set [3] is reported as 69.55%. The BGL result is reported as “moderate reduction in BGL” in data set [3] (50 μ/Kg, 4th, 15th and 30th); “moderate decreases in BGL” in data set [3] (setting [5]). For the same molecule, the glucose level entry in data set [3] (setting [7]) is on record as “significant reduction in glucose level”. The Mortilaty in data set [1] came out at 0%. For the same molecule, the VLDL level entry in data set [2] (4th, 15th and 30th days) is given as “regulated the VLDL level to the normal level”. In addition, the CH level entry in data set [2] (30th day, 50 μ/Kg) is reported as “lower CH level than the normal animals”. Besides, the TG level entry in data set [2] (30th day, versus normal level, 50 μ/Kg) is recorded as “decreased to the normal level”. The “serum CH level decrease” value in data set [2] (50 μ/Kg) is recorded as 48%.
As for `Cc1nnc(NC(=S)SCC(=O)N2C(=O)S/C(=C/c3ccc4c(c3)OCO4)C2=O)s1` [Compound 9, 2-(5-(Benzo[d][1,3]dioxol-5-ylmethylene)-2,4-dioxothiazolidin-3-yl)-2-oxoethyl (5-Methyl-1,3,4-thiadiazol-2-yl) Carbamodithioate], the BGL result in data set [3] (50 μ/Kg, 4th, 15th and 30th) is given as “moderate reduction in BGL”; in data set [3] (setting [5]) it was “moderate decreases in BGL”. Moreover, the VLDL level result in data set [2] (4th, 15th and 30th days) was “regulated the VLDL level to the normal level”. Also, the CH level result in data set [2] (30th day, 50 μ/Kg) is reported as “lower CH level than the normal animals”. Further, the “serum CH level decrease” value in data set [2] (50 μ/Kg) is recorded as 52%.
Take `O=C1CSC(=O)N1CC(=O)N1C(=O)SC(=Cc2ccc3c(c2)OCO3)C1=O` [Compound 11, 5-(Benzo[d][1,3]dioxol-5-ylmethylene)-3-(2-(2,4-dioxothiazolidin-3-yl)acetyl) Thiazolidine-2,4-dione]: the IC50 on α-amylase was 49.2 µM. In addition, in data set [4], the “IC50 DPPH radical scavenging” value is 11.16 µg/mL (≈ 27.5 µM). Further, in data set [3], the “reduction percentage of blood glucose level” value was found to be 66.95%. Also, the BGL entry in data set [3] (50 μ/Kg, p < 0.05, all experiment periods compared to DC group) is “promising reduction in BGL”; in data set [3] (setting [6]), “promising decreases in BGL”. Further, the glucose level result in data set [3] (100 μ/Kg, in comparison with DC, 4th, 15th and 30th time durations) is “significant reduction in glucose level”; in data set [3] (setting [7]), “significant reduction in glucose level”. For the same molecule, in data set [2] (4th and 30th day), the VLDL result is listed as “regulated only the VLDL of infected rats to normal values”. Besides, the CH level entry in data set [2] (30th day, 50 μ/Kg) is “lower CH level than the normal animals”. Further, the “serum CH level decrease” value in data set [2] (50 μ/Kg) was 43%.
